{
  "source": "paper PMC8234462",
  "about": "“Novel Cyclophilin Inhibitor Decreases Cell Proliferation and Tumor Growth in Models of Hepatocellular Carcinoma” (Cancers, 2021)",
  "key": {"Bone marrow progenitors": {"system": "Bone marrow progenitors", "assay": "Cytotoxicity, colony formation", "assay_type": "cell-based, human", "conditions": "Homo sapiens, 336 h, 14 days of treatment, colonies counted", "procedure": "The evaluation of the off-target effects of NV651 was performed by ImQuest BioSciences Inc. (Frederick, MD, USA) by analyzing the cytotoxicity in a panel of primary cells. NV651 was evaluated at a concentration of 30 µM and five serial half-logarithmic dilutions in triplicate. The positive control compounds for each cell type were purchased from Sigma-Aldrich (St. Louis, MO, USA) and were as follows: Unstimulated human peripheral blood mononuclear cells (PBMCs), phytohemagglutinin (PHA)-stimulated PBMCs, monocytes/macrophages, dendritic cells, hepatocytes, induced pluripotent stem cell (iPS) neurons: […] AZT, kidney cells (RPTEC): cisplatin and iPS cardiomyocytes: Doxazosin. Bone marrow progenitor cells (Invitrogen, Waltham, MA, USA) were suspended in cell culture medium (Iscove-modified Dulbecco medium) containing 15% FBS, 10% giant tumor-conditioned medium (Bone Marrow Plus, Sigma-Aldrich, St. […] Cells (1 × 10^5 cells/well) were seeded in 6-well plates containing NV651 in triplicate. Cells were incubated for 14 days, and colonies (more than 30 cells) were counted."}, "Luc+ HEPG2 xenograft": {"system": "Luc+ HEPG2 xenograft", "assay": "In vivo efficacy, xenograft tumor growth", "set-up": "species or system NMRI nude mice", "conditions": "10 mg/kg daily subcutaneous", "procedure": "Twenty-five percent buffered Hydroxy Propyl beta Cyclodextrin (HPbCD) was prepared from Hydroxy Propyl beta Cyclodextrin (Roquette, Lestrem, France), EDTA solution and phosphate buffer at a pH of 7.4, filtered with a […] (VWR, Cat# 28145-483, Radnor, PA, USA) and stored at 4 °C. NV651 was prepared at a concentration of 10 mg/kg with 25% buffered HPbCD (vehicle). NV651 solution was sonicated for 30 min in a water bath sonicator (Bioruptor, Diagenode, Denville, NJ, USA) and shaken for up to an hour, followed by a secondary sterilization with a 0.2-µm filter. NV651 solution was stored at 4 °C up to 2 weeks, with stability confirmed up to 3 weeks.\nHEPG2 cells were transduced with RediFect Red-FLuc-GFP (Perkin Elmer, Cat# CLS960003, Waltham, MA, USA) with a MOI = 3 and sorted for GFP^+ in a FACSAria III (BD Biosciences, Franklin Lakes, NJ, USA). […] Cell viability and a percentage of the GFP^+ cells were analyzed before the start of the in vivo experiment with a BD FACSverse cytometer (BD Biosciences, Franklin Lakes, NJ, USA). […]\nTumor growth was assessed with an in vivo imaging system (IVIS) one week after the injection of the cells. […] Body weights were measured at time 0 of the treatment and twice a week after the beginning of the treatment. […] Tumor growth was analyzed for up to 3 weeks. […]"}},
  "data": [
    {"smiles": "CC(=O)CCC1C(=O)NC(C(C)C)C(=O)NC(Cc2cc(O)cc(F)c2)C(=O)N2CCCC(N2)C(=O)OC(C(C)=CC=CC(=O)OC(C)(C)C)CC=CC=CC(O)C(C)C1O", "note": "(stereo not drawn) [NV651]", "values": [
      {"measurement": "IC50", "setting": "Bone marrow progenitors", "result": "> 30", "unit": "µM"},
      {"measurement": "luminescence signal (tumor growth, IVIS) vs vehicle", "setting": "Luc+ HEPG2 xenograft; after 3 weeks of treatment", "result": "significantly reduced"},
      {"measurement": "tumor growth by caliper measurements vs vehicle", "setting": "Luc+ HEPG2 xenograft; up to 3 weeks", "result": "reduced tumor growth"}
    ]}
  ]
}
